According to patent US5674697A, “High sensitivity immunoassay for polychlorinated dibenzo-p-dioxins and polychlorinated dibenzofurans” (priority 1995, dated 1997):
Read-outs that look alike come from different tables or passages of the source.

Experiments:
[1] = cited from earlier work; for TEF* (toxic equivalency factor): Table II, congeners of the TEF Mixture native standard
DD-3 antibody = experiment: Direct competitive EIA with immobilized DD-3 monoclonal antibody and competitor-HRP conjugate; assay type: binding, mouse; settings: for Assay sensitivity compared with the Hapten I enzyme conjugate based assay: analyte 2,3,7,8-TCDD; for Assay sensitivity compared with the Hapten I enzyme conjugate based assay / I50 (pg/well) / I85 (mdl, pg/well): DD-3 antibody; for I50 (pg/well) / I85 (mdl, pg/well): analyte 2,3,7,8-tetrachlorodibenzo-p-dioxin, listed competitor as HRP conjugate
Excerpt: Antibodies can be readily prepared by standard methods. […] M. Vanderlaan, et al., U.S. Pat. No. 4,798,807 (1989).
The competitors A-F (FIG. 2) and Hapten I (FIG. 1) were conjugated to the enzyme, amino modified Horseradish Peroxidase (HRP) (horseradish peroxidase commercially available from Sigma Chemical Co. (No. P-6782), St. Louis, Mo.; amino modified per R. Hsiao and H. Royer, Archives Biochem. Biophys., 198, 379-385 (1979) to give 6-24 free amines), using the carbodiimide mediated carboxyl activation procedure described in Example 7. Hapten and competitor load were determined by UV/Vis spectroscopy, also as described in Example 7.
The direct EIA (immobilized antibody and competitor enzyme conjugate) was performed as follows. Monoclonal antibody supernatant stored at -20° C. was diluted 1,000-40,000 fold with PBS which contained 0.1% Tween-20. This solution was dispensed (500 ul) into donkey anti-mouse second antibody coated tubes (DAM Tubes commercially available from Millipore Corp., Bedford, Mass.) and incubated at room temperature overnight. The antisera solution was decanted from the tubes and the tubes washed 3 times with distilled water. Non-specific sites in the tubes were blocked with 600 ul of BSA blocking buffer (EIA Blocking Buffer commercially available from Millipore Corp., Bedford, Mass.) and incubated for 2 hours at room temperature or overnight at 4° C. The blocking buffer was decanted and the tubes allowed to dry under ambient room conditions for at least 2 hours. The assay was performed by adding 500 ul of assay diluent (1% methanol (v/v) and 0.005% Tween-20 (w/v) in distilled water) to the required number of tubes followed by 10 ul of a methanol solution of the analyte (PCDD or PCDF). After a 5 minute incubation at room temperature, the solution was decanted and the tubes rinsed 3-4 times with tap water. The horseradish peroxidase competitor or Hapten I conjugates were diluted 1,000-60,000 fold from 2-5 mg/ml stock solutions in PBS with conjugate diluent (Enzyme Conjugate Diluent commercially available from Millipore Corp., Bedford, Mass.). The enzyme conjugate (200 ul) was added to the tubes followed by a 5 minute incubation at room temperature. The conjugate solution was decanted and the tubes rinsed 3-4 times with tap water. Enzyme substrate solution (500 ul, KPL No. 50-76-04 commercially available from KPL Laboratories, Gaithersburg, Md.) was added and the tubes were incubated at room temperature for 5-15 minutes. The enzyme reaction was stopped with the addition of 500 ul of 1N HCl. The OD of the solution was determined at 450 nm. The data was plotted using Log (Congener Concentration) versus B/Bo (B=Sample Absorbance, Bo=Sample Blank Absorbance).

[2] = most toxic PCDD/PCDF congeners, reference 2,3,7,8-TCDD = 1.0, S. Safe 1990
[3] = toxicity relative to 2,3,7,8-TCDD
[4] = analyte 2,3,7,8-tetrachlorodibenzofuran, DD-3 and Competitor F

Clc1cc2c(oc3c(Cl)c(Cl)c(Cl)c(Cl)c32)c(Cl)c1Cl [1,2,3,4,6,7,8-HpCDF]
TEF* (toxic equivalency factor) [1]: 0.01 | TEF [1, 2]: 0.01

Clc1cc2c(c(Cl)c1Cl)Oc1c(Cl)c(Cl)c(Cl)c(Cl)c1O2 [1,2,3,4,6,7,8-heptachlorodibenzo-p-dioxin]
TEF [1, 2]: 0.01 | TEF [1, 3]: 0.01

Clc1cc(Cl)c2c(c1Cl)Oc1c(Cl)c(Cl)c(Cl)c(Cl)c1O2 [1,2,3,4,6,7,9-HpCDD]
TEF* (toxic equivalency factor) [1]: 0.01 | TEF [1, 2]: 0.01

Clc1cc2oc3c(Cl)c(Cl)c(Cl)c(Cl)c3c2c(Cl)c1Cl [1,2,3,4,7,8,9-HpCDF]
TEF* (toxic equivalency factor) [1]: 0.01 | TEF [1, 2]: 0.01

Clc1cc2c(cc1Cl)Oc1c(Cl)c(Cl)c(Cl)c(Cl)c1O2 [1,2,3,4,7,8-HxCDD]
TEF* (toxic equivalency factor) [1]: 0.1 | TEF [1, 2]: 0.1

Clc1cc2oc3c(Cl)c(Cl)c(Cl)c(Cl)c3c2cc1Cl [1,2,3,4,7,8-HxCDF]
TEF* (toxic equivalency factor) [1]: 0.1 | TEF [1, 2]: 0.1

Clc1cc2c(c(Cl)c1Cl)Oc1cc(Cl)c(Cl)c(Cl)c1O2 [1,2,3,6,7,8-HxCDD]
TEF* (toxic equivalency factor) [1]: 0.1 | TEF [1, 2]: 0.1

Clc1cc2c(oc3cc(Cl)c(Cl)c(Cl)c32)c(Cl)c1Cl [1,2,3,6,7,8-HxCDF]
TEF* (toxic equivalency factor) [1]: 0.1 | TEF [1, 2]: 0.1

Clc1cc2c(c(Cl)c1Cl)Oc1c(cc(Cl)c(Cl)c1Cl)O2 [1,2,3,7,8,9-HxCDD]
TEF* (toxic equivalency factor) [1]: 0.1 | TEF [1, 2]: 0.1

Clc1cc2oc3cc(Cl)c(Cl)c(Cl)c3c2c(Cl)c1Cl [1,2,3,7,8,9-HxCDF]
TEF* (toxic equivalency factor) [1]: 0.1 | TEF [1, 2]: 0.1

Clc1cc2c(cc1Cl)Oc1c(cc(Cl)c(Cl)c1Cl)O2 [1,2,3,7,8-PeCDD]
TEF* (toxic equivalency factor) [1]: 0.5 | TEF [1, 2]: 0.5

Clc1cc2oc3cc(Cl)c(Cl)c(Cl)c3c2cc1Cl [1,2,3,7,8-PeCDF]
TEF* (toxic equivalency factor) [1]: 0.05 | TEF [1, 2]: 0.05

Clc1cc2c(oc3c(Cl)c(Cl)c(Cl)cc32)c(Cl)c1Cl [2,3,4,6,7,8-HxCDF]
TEF* (toxic equivalency factor) [1]: 0.1 | TEF [1, 2]: 0.1

Clc1cc2c(cc1Cl)Oc1cc(Cl)c(Cl)cc1O2 [2,3,7,8-TCDD, 2,3,7,8-tetrachlorodibenzo-p-dioxin]
TEF* (toxic equivalency factor) [1]: 1 | TEF [1, 2]: 1.0 | TEF [1, 3]: 1.0

Clc1cc2oc3cc(Cl)c(Cl)cc3c2cc1Cl [2,3,7,8-TCDF, 2,3,7,8-tetrachlorodibenzofuran]
TEF* (toxic equivalency factor) [1]: 0.1 | TEF [1, 2]: 0.1 | Factor more sensitive than DD-3 and Hapten I assay system (DD-3 antibody; analyte 2,3,7,8-tetrachlorodibenzofuran, Competitor F versus literature Hapten I assay (Stanker 1987)): ~10 | I50 (DD-3 antibody; [4]): 800 pg/well | I85 (mdl) (DD-3 antibody; [4]): 80 pg/well

O=C(O)CCCCc1cc(Cl)ccc1Cl [Competitor A, 5-(2,5-dichlorophenyl)pentanoic acid]
Assay sensitivity compared with the Hapten I enzyme conjugate based assay (DD-3 antibody): significantly more sensitive | I50 (pg/well) (DD-3 antibody): 1,000 pg/well | I85 (mdl, pg/well) (DD-3 antibody): 25 pg/well

O=C(O)CCc1ccc(Cl)c(Cl)c1 [Competitor B]
Assay sensitivity compared with the Hapten I enzyme conjugate based assay (DD-3 antibody): significantly more sensitive | I50 (pg/well) (DD-3 antibody): 350 pg/well | I85 (mdl, pg/well) (DD-3 antibody): 20 pg/well

O=C(O)CCCOc1ccc(Cl)cc1Cl [Competitor C]
Assay sensitivity compared with the Hapten I enzyme conjugate based assay (DD-3 antibody): significantly more sensitive | I50 (pg/well) (DD-3 antibody): 230 pg/well | I85 (mdl, pg/well) (DD-3 antibody): 13 pg/well

O=C(O)CCCOc1ccc(Cl)c(Cl)c1 [Competitor D]
Assay sensitivity compared with the Hapten I enzyme conjugate based assay (DD-3 antibody): significantly more sensitive | I50 (pg/well) (DD-3 antibody): 380 pg/well | I85 (mdl, pg/well) (DD-3 antibody): 15 pg/well

O=C(O)CCCSc1cc(Cl)ccc1Cl [Competitor E]
Assay sensitivity compared with the Hapten I enzyme conjugate based assay (DD-3 antibody): significantly more sensitive | I50 (pg/well) (DD-3 antibody): 380 pg/well | I85 (mdl, pg/well) (DD-3 antibody): 15 pg/well

O=C(O)CCCC(=O)c1ccc(Cl)c(Cl)c1 [Competitor F]
Assay sensitivity compared with the Hapten I enzyme conjugate based assay (DD-3 antibody): significantly more sensitive | I50 (pg/well) (DD-3 antibody): 230 pg/well | I85 (mdl, pg/well) (DD-3 antibody): 13 pg/well

Clc1c(Cl)c(Cl)c2c(c1Cl)Oc1c(Cl)c(Cl)c(Cl)c(Cl)c1O2 [OCDD]
TEF* (toxic equivalency factor) [1]: 0.001 | TEF [1, 2]: 0.001

Clc1c(Cl)c(Cl)c2c(oc3c(Cl)c(Cl)c(Cl)c(Cl)c32)c1Cl [OCDF]
TEF* (toxic equivalency factor) [1]: 0.001 | TEF [1, 2]: 0.001
